Assay results as given in PMC12406652 (Antimicrobial Agents and Chemotherapy, 2025).

Experiments:
[1] = human, in vivo; for AUCinf, geometric LS mean, Reference / Cmax, geometric LS mean, Reference: 400 mg
[2] = in vivo
[3] = human, in vivo

SMILES | AUCinf, geometric LS mean, Test [1] | Cmax, geometric LS mean, Test [1] | AUCinf, geometric LS mean, Reference [1] | Cmax, geometric LS mean, Reference [1] | Fe0-8 recovered in urine, of the last dose [2] | Change in geometric mean AUCtau from the first to the last dose [3]
Nc1nc(/C(=C/CC(=O)O)C(=O)N[C@@H]2C(=O)N3C(C(=O)O)=CCS[C@H]23)cs1 (relative stereo) [Cis-ceftibuten, cis-ceftibuten] | 79030 ng·h/mL | 15410 ng/mL | 90090 ng·h/mL | 17560 ng/mL | 50-68% | 44-52%
Nc1nc(/C(=C\CC(=O)O)C(=O)N[C@@H]2C(=O)N3C(C(=O)O)=CCS[C@H]23)cs1 (relative stereo) [Trans-ceftibuten, trans-ceftibuten] | 8946 ng·h/mL | 1319 ng/mL | 10400 ng·h/mL | 1552 ng/mL | 20-23% | 64-75%
